In US20090082367A1, “TRIAZOLE DERIVATIVE OR A SALT THEREOF” (ASTELLAS PHARMA INC., priority 2006, published 2009):

What was measured:
ob/ob male mice [1] = assay: Ob/ob mouse triglyceride-lowering test; assay type: in vivo; conditions: oral 10 mg/kg bid for 9 days, non-fasting, 12 hours after final administration, n=6
Procedure: (§1) Using 6% 2-hydroxypropyl-β-cyclodextrin as the solvent, a compound liquid was prepared. Triglyceride values were measured under non-fasting using ob/ob male mice of 9 weeks of age, and then arrangement into groups was carried out at random in such a manner that their triglyceride values became uniform. The compound to be tested was repeatedly orally administered (10 mg/kg, bid) twice a day for 9 days, and triglyceride values after 12 hours of the final administration were measured (n=6). Triglyceride was measured by carrying out colorimetric determination of the amount of triglyceride (mg/dl) in heparin blood plasma obtained by collecting blood in a heparin-coated glass capillary and subsequently centrifuging it.

[2] = target: T1, human recombinant 11β-HSD1 (Homo sapiens, UniProt P28845); assay: Measuring test of human 11β-HSD1-inhibitory activity (HTRF cortisol detection); assay type: biochemical; conditions: human recombinant 11β-HSD1, 20 nM cortisone, 40 μM NADPH, pH 6.6, room temperature 1 hour
T1 construct: made in house
T1 sequence (P28845 whole entry): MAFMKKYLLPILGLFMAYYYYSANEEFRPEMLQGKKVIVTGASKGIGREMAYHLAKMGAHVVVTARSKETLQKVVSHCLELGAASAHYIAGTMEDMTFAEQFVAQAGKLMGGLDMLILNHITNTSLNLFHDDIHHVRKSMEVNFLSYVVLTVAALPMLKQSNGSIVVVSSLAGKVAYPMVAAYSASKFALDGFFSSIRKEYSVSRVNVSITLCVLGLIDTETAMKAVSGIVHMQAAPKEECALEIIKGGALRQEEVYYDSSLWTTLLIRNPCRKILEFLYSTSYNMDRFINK
Procedure: The procedure for measuring 11β-HSD1-inhibitory activity is as follows. In this connection, the enzyme reaction and measurement were carried out using a 384-well plate. The enzyme was prepared in accordance with a reference (Walker E. A. et al., Journal of Biological Chemistry, 2001, vol. 276, p. 21343-21350). The reaction was carried out by adding the compound to be tested having varied concentration to a reaction liquid consisting of 10 mM phosphate buffer (pH 6.6), 20 nM cortisone, 40 μM reduced nicotinamide adenine dinucleotide phosphate (NADPH) and human recombinant 11β-HSD1, and then incubating at room temperature for 1 hour (10 μl/well). The compound to be tested was prepared by dissolving in dimethyl sulfoxide (DMSO) to a DMSO concentration of 1% in the reaction liquid. After the enzyme reaction, the enzyme inhibitory activity was measured by detecting cortisol using a homogeneous time-resolved fluorescence method (HTRF). Each of the XL-665-labeled cortisol containing 400 μM carbenoxolone and cryptate-labeled cortisol antibody (CIS bio international) was added in 5 μl/well portions and incubated at room temperature for 2 hours, and then the fluorescence intensity was measured using a fluorophotometer (trade name: Discovery, Perkin Elmer), and the enzyme inhibitory activity was calculated from the fluorescence intensity ratio at two wavelengths (665 nm/620 nm).
(§2) The measured result was calculated by averaging the values of 3 wells of the same condition. The ratio when DMSO was added instead of the compound to be tested was regarded as 0% and the ratio when 11β-HSD1 or 11β-HSD2 was not added was regarded as 100%, thereby calculating 50% inhibition concentration of the compound to be tested as IC50 of the compound inhibitory activity.

[3] = target: T2, human recombinant 11β-HSD2 (Homo sapiens, UniProt P80365); assay: Measuring test of human 11β-HSD2-inhibitory activity (HTRF cortisol detection); assay type: biochemical; conditions: human recombinant 11β-HSD2, 200 nM cortisol, 200 μM NAD, pH 8.0, 37° C. 2 hours
T2 sequence (P80365 1-405): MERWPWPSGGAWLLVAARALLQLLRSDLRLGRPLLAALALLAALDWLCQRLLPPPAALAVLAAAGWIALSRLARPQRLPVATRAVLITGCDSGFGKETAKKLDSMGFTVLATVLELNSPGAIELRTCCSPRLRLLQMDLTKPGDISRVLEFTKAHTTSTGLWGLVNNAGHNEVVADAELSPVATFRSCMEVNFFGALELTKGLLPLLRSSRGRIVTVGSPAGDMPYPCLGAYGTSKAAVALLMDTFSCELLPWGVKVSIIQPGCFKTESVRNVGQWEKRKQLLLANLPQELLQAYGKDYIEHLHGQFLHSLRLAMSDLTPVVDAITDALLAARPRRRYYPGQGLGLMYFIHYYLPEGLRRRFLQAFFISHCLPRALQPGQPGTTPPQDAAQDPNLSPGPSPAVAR
Procedure: Measurement of the 11β-HSD2 activity was carried out by the same method of the 11β-HSD1 activity measurement, except for the enzyme reaction conditions. The enzyme reaction was carried out by adding the compound to be tested having varied concentration to a reaction liquid consisting of 40 mM Tris-HCl buffer (pH 8.0), 200 nM cortisol, 200 μM nicotinamide adenine dinucleotide (NAD) and human recombinant 11β-HSD2, and then incubating at 37° C. for 2 hours (10 μl/well).
as §2

ob/ob male mice [4] = assay: Ob/ob mouse blood glucose-lowering test; assay type: in vivo; conditions: oral 10 mg/kg bid for 9 days, non-fasting, 12 hours after final administration, n=6
Procedure: as §1, with “prepared. Blood glucose” for “prepared. Triglyceride”, “of age (blood glucose value, 300 mg/dl or more),” for “of age,”, “their blood glucose” for “their triglyceride”, “and blood glucose” for “and triglyceride”, “(n=6). The blood glucose value” for “(n=6). Triglyceride”, “of glucose” for “of triglyceride”

SMILES | IC50 [2] [µM] | IC50 [3] [µM] | triglyceride-lowering action (ob/ob male mice [1]) [%] | blood glucose-lowering action (ob/ob male mice [4]) [%]
CC(C)(c1ccc(Br)s1)c1nnc(C2CC2)n1C1CC1 [Example 3, 3-[1-(5-bromo-2-thienyl)-1-methylethyl]-4,5-dicyclopropyl-4H-1,2,4-triazole] | 0.0079 | > 3 | 50 | 27
CC(C)(c1nnc(C2CC2)n1C1CC1)n1cccc1Cl [Example 9, 3-[1-(2-chloro-1H-pyrrol-1-yl)-1-methylethyl]-4,5-dicyclopropyl-4H-1,2,4-triazole] | 0.062 | > 30 | – | –
CN(C1CCC1)C(C)(C)c1nnc(C2CC2)n1C1CC1 [Example 57] | 0.07 | > 30 | – | –
CC(C)(c1cc(Br)cs1)c1nnc(C2CC2)n1C1CC1 [Example 77] | 0.012 | > 10 | – | –
CC(C)(c1cccc(Cl)n1)c1nnc(C2CC2)n1CCc1ccccc1 [Example 85] | 0.034 | > 10 | – | –
CC(C)(c1ccccn1)c1nnc(C2CC2)n1CCc1c(F)cccc1F [Example 154] | 0.038 | > 30 | – | 21
CC(C)(c1ccc(Br)s1)c1nnc(C2CC2)n1CCc1c(F)cccc1F [Example 167] | 0.07 | > 30 | – | 24
CC(C)(c1ccc(C(F)(F)F)s1)c1nnc(C2CC2)n1C1CC1 [Example 169] | 0.024 | > 10 | – | –
CC(C)(c1ccsc1)c1nnc(C2CC2)n1C1CC1 [Example 172] | 0.019 | > 10 | – | 27

Second part, led by results:

IC50 [2] [µM] | IC50 [3] [µM] | SMILES | triglyceride-lowering action (ob/ob male mice [1]) [%] | blood glucose-lowering action (ob/ob male mice [4]) [%]
0.012 | > 10 | CC(C)(c1ccsc1)c1nnc(C2CCC2)n1C1CC1 [Example 173] | – | –
0.025 | > 10 | Fc1ccc(CCn2c(C3CC3)nnc2C2(c3ccccn3)CCC2)cc1 [Example 198] | – | –
0.041 | > 10 | Brc1ccn(C2(c3nnc(C4CC4)n3C3CC3)CCC2)c1 [Example 213] | – | –
0.0047 | > 3 | CC(C)(c1sc(C(F)(F)F)cc1F)c1nnc(C2CC2)n1C1CC1 [Example 280] | 42 | 35
0.0052 | > 3 | Cn1c(C(C)(C)C)nnc1C(C)(C)c1ccc(Cl)s1 [Example 281] | – | –
0.0024 | > 3 | Cn1c(C2(C)CC2)nnc1C(C)(C)c1ccc(Cl)s1 [Example 283] | – | –
